Results: ChEMBL document CHEMBL5131417, “Metabolic installation of macrophage-recruiting glycan ligand on tumor cell surface for in vivo tumor suppression” (Bioorg Med Chem Lett, 2022)
Calls of active or inactive are those of the source. The rule behind the calls is not given here.

Legend:
B16-F10 [1] = experiment: Antitumor activity against B16-F10 cells implanted in C57BL/6 mouse assessed as reduction in tumor volume at 30 mg/kg, iv dosed on 2nd, 4th, 6th, 8th, 10th, 12th and 14th day post tumor transplantation; type: functional; design: scale not given: the % may be the effect or the level left; settings: time 14 day
U-87 MG = experiment: Drug distribution in plasma membrane of human U87 cells at 100 uM incubated for 24 hrs by confocal microscopy; type: ADME, cell-based; settings: u-87mg atcc
[2] = Drug distribution in plasma membrane of mouse B16-F10 cells at 100 uM incubated for 24 hrs by confocal microscopy; type: ADME, cell membranes; settings: b16-f10, 24 h
[3] = Toxicity in mouse B16-F10 cells assessed as effect on cell viability at 0.1 to 100 uM incubated for 24 hrs; type: cell-based; settings: b16-f10, 24 h, dose 0.1-100 µM
B16-F10 [4] = experiment: Activation of binding of GFP-expressed mouse B16-F10 cells with mouse RAW264.7 cells at 100 uM incubated for 24 hrs by fluorescence microscopy; type: functional, cell-based
B16-F10 [5] = experiment: Antitumor activity against B16-F10 cells implanted in C57BL/6 mouse assessed as reduction in size and number of metastasis in lung at 30 mg/kg, iv dosed every day after tumor transplantation; type: functional, organism-based
[6] = Toxicity in C57BL/6 mouse assessed as induction of abnormal death at 300 mg/kg, iv measured up to 100 days after injection; type: organism-based; settings: in vivo, 2400 h, time < 100 day

Structure (SMILES): CC(=O)N[C@H]1[C@H]([C@H](O)[C@H](O)CNC(=O)c2cc3c(s2)-c2ccccc2OC3)O[C@@](O)(C(=O)O)C[C@@H]1O
- Activity (B16-F10 [1]): 60%
- Drug uptake (U-87 MG): Active
- Drug uptake [2]: Active
- Activity [3]: Non-Toxic
- Activity (B16-F10 [4]): Active
- Activity (B16-F10 [5]): Active
- Activity [6]: Non-Toxic
